The first experiment deals with T1, myeloperoxidase (MPO) (Homo sapiens, UniProt P05164).
T1 sequence (P05164 49-745): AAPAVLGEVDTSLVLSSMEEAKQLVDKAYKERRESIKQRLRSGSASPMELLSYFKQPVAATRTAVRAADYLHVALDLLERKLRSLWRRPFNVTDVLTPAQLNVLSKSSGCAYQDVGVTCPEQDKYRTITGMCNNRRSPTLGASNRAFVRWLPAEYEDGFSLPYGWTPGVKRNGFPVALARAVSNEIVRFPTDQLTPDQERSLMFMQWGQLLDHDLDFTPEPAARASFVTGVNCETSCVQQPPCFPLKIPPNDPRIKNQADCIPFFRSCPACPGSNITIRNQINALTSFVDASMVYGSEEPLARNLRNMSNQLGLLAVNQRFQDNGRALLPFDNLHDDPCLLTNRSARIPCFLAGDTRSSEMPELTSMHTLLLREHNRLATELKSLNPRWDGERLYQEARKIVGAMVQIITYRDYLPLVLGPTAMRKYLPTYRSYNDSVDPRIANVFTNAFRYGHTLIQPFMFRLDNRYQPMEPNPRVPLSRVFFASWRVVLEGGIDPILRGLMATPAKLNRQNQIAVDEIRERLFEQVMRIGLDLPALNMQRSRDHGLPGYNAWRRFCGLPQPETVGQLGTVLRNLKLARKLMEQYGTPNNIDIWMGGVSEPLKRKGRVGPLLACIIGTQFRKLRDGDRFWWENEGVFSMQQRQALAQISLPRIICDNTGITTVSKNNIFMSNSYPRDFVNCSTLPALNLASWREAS
Nature of the experiment: MPO peroxidation assay (Amplex Red assay). It is filed as biochemical.
Conditions: not given
Here is the method:
MPO Peroxidation Assay (Amplex Red Assay)
MPO peroxidation activity was measured in 100 mM KPi (pH 7.4) by utilizing the non-fluorescent reagent Amplex Red (Invitrogen catalog # A12222) which can be oxidized to the highly fluorescent resorufin. Amplex Red is oxidized by the peroxidase action of MPO to resorufin. Reactions were carried out in 50 μL total volume by adding a 25 μL mixture of 200 pM myeloperoxidase and 40 nM H2O2(Sigma #349887) to 100 nL inhibitor in 100% DMSO in a 384 well Perkin Elmer Optiplate. Enzyme and compound were preincubated for ten minutes at room temperature.
After the ten minute preincubation, 25 μL of an Amplex Red mixture containing 200 μM Amplex Red and 10 mM H2O2 was added to the plate. Kinetic determinations were carried out immediately on a Perkin Elmer Envision (15 minute kinetic read, Ex: 535 nm, Em: 590 nm).
IC50 values were calculated by determining the slope of the linear portion of the kinetic trace ([…]), and using that calculated slope to determine % inhibition occurring at each concentration of inhibitor using the following equation:
[formula] where A=minimal Y value (activity level of inhibited sample), B=maximal Y value (activity level of uninhibited sample), C=Log IC50, D=Hill Slope, x=concentration of inhibitor. MPO Chlorination Assay (APF Assay)
A word on the IC50: it is the concentration needed to halve the response being measured. As to `Nc1cc(OCc2cccc(-c3cccc(F)c3)c2)c2nn[nH]c2n1` [Example 91, 7-((3′-Fluorobiphenyl-3-yl)methoxy)-3H-[1,2,3]triazolo[4,5-b]pyridin-5-amine], the IC50 fell in the range of 1 to 100 nM. Still for that read-out and setting: next, `Nc1cc(OCc2cccc(-c3ccccc3F)c2)c2nn[nH]c2n1` [Example 96, 7-((2′-Fluorobiphenyl-3-yl)methoxy)-3H-[1,2,3]triazolo[4,5-b]pyridin-5-amine]: 1 to 100 nM.

The same experiment, now with this note: MPO peroxidation, potency range class; read-out: Amplex Red IC50.
For `CC(C)Cn1cc(-c2ccc(F)c(COc3cc(N)nc4[nH]nnc34)c2)cn1` [Example 82, 7-(2-Fluoro-5-(1-isobutyl-1H-pyrazol-4-yl)benzyloxy)-3H-[1,2,3]triazolo[4,5-b]pyridin-5-amine], the IC50 lay in the range of 1 to 100 nM. With `COc1ccc(-n2cncn2)cc1COc1cc(N)nc2[nH]nnc12` [Example 83, 7-(2-Methoxy-5-(1H-1,2,4-triazol-1-yl)benzyloxy)-3H-[1,2,3]triazolo[4,5-b]pyridin-5-amine], the IC50 lay within 1 to 100 nM. As for `Cc1cn(-c2cccc(COc3cc(N)nc4[nH]nnc34)c2)cn1` [Example 84, 7-(3-(4-Methyl-1H-imidazol-1-yl)benzyloxy)-3H-[1,2,3]triazolo[4,5-b]pyridin-5-amine], the IC50 fell in the range of 101 to 999 nM. `Cc1ccn(-c2cccc(COc3cc(N)nc4[nH]nnc34)c2)n1` [Example 85, 7-(3-(3-Methyl-1H-pyrazol-1-yl)benzyloxy)-3H-[1,2,3]triazolo[4,5-b]pyridin-5-amine]: the IC50 lay in the range of 101 to 999 nM. As for `Cc1c(COc2cc(N)nc3[nH]nnc23)cccc1-n1cncn1` [Example 86, 7-(2-Methyl-3-(1H-1,2,4-triazol-1-yl)benzyloxy)-3H-[1,2,3]triazolo[4,5-b]pyridin-5-amine], the 50% inhibitory concentration (IC50) is 1 to 100 nM. Still for that read-out and setting: with `COc1ccc(-n2cnc(C)n2)cc1COc1cc(N)nc2[nH]nnc12` [Example 87, 7-(2-Methoxy-5-(3-methyl-1H-1,2,4-triazol-1-yl)benzyloxy)-3H-[1,2,3]triazolo[4,5-b]pyridin-5-amine] the figure was 1000 to 10000 nM. The same measure, in the same setting: with `CCOc1ccc(Cl)cc1COc1cc(N)nc2[nH]nnc12` [Example 88, 7-(5-Chloro-2-ethoxybenzyloxy)-3H-[1,2,3]triazolo[4,5-b]pyridin-5-amine] the figure was 1 to 100 nM. Take `Nc1cc(OCc2cc(Cl)ccc2OCC2CCCO2)c2nn[nH]c2n1` (stereo not drawn) [Example 89, 7-(5-Chloro-2-((tetrahydrofuran-2-yl)methoxy)benzyloxy)-3H-[1,2,3]triazolo[4,5-b]pyridin-5-amine]: the IC50 was 1 to 100 nM. On the same count and under the same terms, with `Nc1cc(OCC2CCC(c3ccccc3)CC2)c2nn[nH]c2n1` (stereo not drawn) [Example 90, 7-((4-Phenylcyclohexyl)methoxy)-3H-[1,2,3]triazolo[4,5-b]pyridin-5-amine] the figure was 1 to 100 nM; with `N#Cc1cccc(-c2cccc(COc3cc(N)nc4[nH]nnc34)c2)c1` [Example 92, 3′-((5-Amino-3H-[1,2,3]triazolo[4,5-b]pyridin-7-yloxy)methyl)biphenyl-3-carbonitrile], 1 to 100 nM; with `Nc1cc(OCc2cccc(-c3ccccc3Cl)c2)c2nn[nH]c2n1` [Example 93, 7-((2′-Chlorobiphenyl-3-yl)methoxy)-3H-[1,2,3]triazolo[4,5-b]pyridin-5-amine], 1 to 100 nM. On the same count and under the same terms, with `Nc1cc(OCc2cccc(-c3ccc(F)cc3)c2)c2nn[nH]c2n1` [Example 95, 7-((4′-Fluorobiphenyl-3-yl)methoxy)-3H-[1,2,3]triazolo[4,5-b]pyridin-5-amine] the figure was 1 to 100 nM. For the molecule `Nc1cc(OCc2cccc(-c3ccc(Cl)cc3)c2)c2nn[nH]c2n1` [Example 97, 7-((4′-Chlorobiphenyl-3-yl)methoxy)-3H-[1,2,3]triazolo[4,5-b]pyridin-5-amine], the half-maximal inhibitory concentration (IC50) is 101 to 999 nM. Same read-out and setting: with `Nc1cc(OCc2cccc(-c3ccc(-c4ccn[nH]4)cc3)c2)c2nn[nH]c2n1` [Example 98, 7-((4′-(1H-Pyrazol-5-yl)biphenyl-3-yl)methoxy)-3H-[1,2,3]triazolo[4,5-b]pyridin-5-amine] the figure was 1 to 100 nM; with `CN1CCN(c2ccc(-c3cccc(COc4cc(N)nc5[nH]nnc45)c3)cc2)CC1` [Example 99, 7-((4′-(4-Methylpiperazin-1-yl)biphenyl-3-yl)methoxy)-3H-[1,2,3]triazolo[4,5-b]pyridin-5-amine], 101 to 999 nM; with `Nc1cc(OCc2cccc(-c3ccc(NC(=O)c4ccccc4)cc3)c2)c2nn[nH]c2n1` [Example 100, N-(3′-((5-Amino-3H-[1,2,3]triazolo[4,5-b]pyridin-7-yloxy)methyl)biphenyl-4-yl)benzamide], 1 to 100 nM.

For `N#Cc1ccc(-c2cccc(COc3cc(N)nc4[nH]nnc34)c2)cc1` [Example 101, 3′-((5-Amino-3H-[1,2,3]triazolo[4,5-b]pyridin-7-yloxy)methyl)biphenyl-4-carbonitrile], the IC50 lay in the range of 1 to 100 nM. In the case of `Nc1cc(OCc2cccc(-c3ccc(-c4ccccc4)cc3)c2)c2nn[nH]c2n1` [Example 102, 7-((4′-Phenylbiphenyl-3-yl)methoxy)-3H-[1,2,3]triazolo[4,5-b]pyridin-5-amine], the IC50 is 101 to 999 nM. On to `Nc1cc(OCc2cccc(-c3cccnc3)c2)c2nn[nH]c2n1` [Example 103, 7-(3-(Pyridin-3-yl)benzyloxy)-3H-[1,2,3]triazolo[4,5-b]pyridin-5-amine], for which the half-maximal inhibitory concentration (IC50) was 1 to 100 nM. Turning to `Nc1cc(OCc2cccc(-c3ccc(C(=O)Nc4ccccc4)cc3)c2)c2nn[nH]c2n1` [Example 104, 3′-((5-Amino-3H-[1,2,3]triazolo[4,5-b]pyridin-7-yloxy)methyl)-N-phenylbiphenyl-4-carboxamide], the concentration for half-maximal inhibition (IC50) lay in the range of 101 to 999 nM. The same measure, in the same setting: next, `COc1ccc(-c2cccc(COc3cc(N)nc4[nH]nnc34)c2)cc1F` [Example 105, 7-((3′-Fluoro-4′-methoxybiphenyl-3-yl)methoxy)-3H-[1,2,3]triazolo[4,5-b]pyridin-5-amine]: 1 to 100 nM; `Nc1cc(OCc2ccc(Br)cc2)c2nn[nH]c2n1` [Example 106, 7-(4-Bromobenzyloxy)-3H-[1,2,3]triazolo[4,5-b]pyridin-5-amine]: 1 to 100 nM; `CCN(C)C(=O)c1ccc(-c2ccc(COc3cc(N)nc4[nH]nnc34)cc2)cc1F` [Example 107, 4′-((5-Amino-3H-[1,2,3]triazolo[4,5-b]pyridin-7-yloxy)methyl)-N-ethyl-3-fluoro-N-methylbiphenyl-4-carboxamide]: 101 to 999 nM. Turning to `COc1ccc(-c2ccc(COc3cc(N)nc4[nH]nnc34)cc2)cc1F` [Example 108, 7-((3′-Fluoro-4′-methoxybiphenyl-4-yl)methoxy)-3H-[1,2,3]triazolo[4,5-b]pyridin-5-amine], the IC50 fell in the range of 101 to 999 nM. Consider `Nc1cc(OCc2ccc(-c3ccccc3Cl)cc2)c2nn[nH]c2n1` [Example 109, 7-((2′-Chlorobiphenyl-4-yl)methoxy)-3H-[1,2,3]triazolo[4,5-b]pyridin-5-amine], for which the half-maximal inhibitory concentration (IC50) lay in the range of 101 to 999 nM. The same measure, in the same setting: next, `N#Cc1cccc(-c2ccc(COc3cc(N)nc4[nH]nnc34)cc2)c1` [Example 110, 4′-((5-Amino-3H-[1,2,3]triazolo[4,5-b]pyridin-7-yloxy)methyl)biphenyl-3-carbonitrile]: 1000 to 10000 nM; `Nc1cc(OCc2ccc(-c3cccc(Cl)c3)cc2)c2nn[nH]c2n1` [Example 111, 7-((3′-Chlorobiphenyl-4-yl)methoxy)-3H-[1,2,3]triazolo[4,5-b]pyridin-5-amine]: 1000 to 10000 nM. On the same count and under the same terms, next, `COc1cccc(-c2ccc(COc3cc(N)nc4[nH]nnc34)cc2)c1` [Example 112, 7-((3′-Methoxybiphenyl-4-yl)methoxy)-3H-[1,2,3]triazolo[4,5-b]pyridin-5-amine]: 101 to 999 nM; `COc1cccc(-c2cccc(COc3cc(N)nc4[nH]nnc34)c2)c1` [Example 113, 7-((3′-Methoxybiphenyl-3-yl)methoxy)-3H-[1,2,3]triazolo[4,5-b]pyridin-5-amine]: 1 to 100 nM. In the case of `Nc1cc(OCc2ccc(-c3ccccc3F)cc2)c2nn[nH]c2n1` [Example 114, 7-((2′-Fluorobiphenyl-4-yl)methoxy)-3H-[1,2,3]triazolo[4,5-b]pyridin-5-amine], the IC50 was in the range of 101 to 999 nM. Same read-out and setting: next, `COc1c(F)cccc1-c1cccc(COc2cc(N)nc3[nH]nnc23)c1` [Example 115, 7-((3′-Fluoro-2′-methoxybiphenyl-3-yl)methoxy)-3H-[1,2,3]triazolo[4,5-b]pyridin-5-amine]: 1 to 100 nM.

These data come from patent publication US10316035B2, “Triazolopyridine inhibitors of myeloperoxidase” (BRISTOL-MYERS SQUIBB COMPANY, priority 2015, dated 2019).
